Experimental data as given in article PMC12086093 (Nature Structural & Molecular Biology, 2025).

Columns and labels:
AasS [1] = biological target: T1, AasS (Vibrio harveyi, UniProt Q00IB3); experiment: cryo-EM structure; type: binding; conditions: 2 mM MgCl2, 5 mM AMP-PNP; tetramer; ATP site
T1 sequence (Q00IB3 1-533): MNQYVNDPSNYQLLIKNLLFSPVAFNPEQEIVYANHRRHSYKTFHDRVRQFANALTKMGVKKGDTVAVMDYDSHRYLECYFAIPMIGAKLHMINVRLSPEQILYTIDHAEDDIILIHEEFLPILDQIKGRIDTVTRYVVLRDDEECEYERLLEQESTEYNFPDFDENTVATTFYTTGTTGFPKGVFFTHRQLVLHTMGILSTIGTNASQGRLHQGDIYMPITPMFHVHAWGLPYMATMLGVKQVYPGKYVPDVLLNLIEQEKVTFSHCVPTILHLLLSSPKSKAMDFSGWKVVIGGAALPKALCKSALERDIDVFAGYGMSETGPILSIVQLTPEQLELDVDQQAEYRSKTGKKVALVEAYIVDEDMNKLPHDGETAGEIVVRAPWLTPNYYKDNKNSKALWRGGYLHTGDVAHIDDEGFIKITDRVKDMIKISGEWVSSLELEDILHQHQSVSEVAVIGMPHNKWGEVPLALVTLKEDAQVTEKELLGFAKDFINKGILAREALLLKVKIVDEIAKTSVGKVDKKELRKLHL

AasS [2] = biological target: T1, AasS; experiment: cryo-EM structure; type: binding; conditions: 1.5 mM ATP, no Mg2+; hexamer; phosphate density not continuous
AasS [3] = biological target: T1, AasS; experiment: ITC, one set of sites; type: binding
SEC = biological target: the molecule itself; experiment: SEC

Nc1ncnc2c1ncn2[C@@H]1O[C@H](COP(=O)(O)OP(=O)(O)NP(=O)(O)O)[C@@H](O)[C@H]1O [AMP-PNP]
cryo-EM structure (2.68 Å) (AasS [1]): continuous density for the bound AMP-PNP cofactor

Nc1ncnc2c1ncn2[C@@H]1O[C@H](COP(=O)(O)OP(=O)(O)OP(=O)(O)O)[C@@H](O)[C@H]1O [ATP]
cryo-EM structure (2.45 Å) (AasS [2]): the cryo-EM structure of ATP-liganded AasS remains a hexamer ring

CCOC(=O)CCCCCC(=O)O [E-pim]
Kd (AasS [3]): ~6.45 µM

B1: Vibrio harveyi acyl-ACP synthetase AasS, recombinant with an N-terminal 6xHis-tag (enzyme, UniProt Q00IB3 1-533, looked up)
chain: MNQYVNDPSNYQLLIKNLLFSPVAFNPEQEIVYANHRRHSYKTFHDRVRQFANALTKMGVKKGDTVAVMDYDSHRYLECYFAIPMIGAKLHMINVRLSPEQILYTIDHAEDDIILIHEEFLPILDQIKGRIDTVTRYVVLRDDEECEYERLLEQESTEYNFPDFDENTVATTFYTTGTTGFPKGVFFTHRQLVLHTMGILSTIGTNASQGRLHQGDIYMPITPMFHVHAWGLPYMATMLGVKQVYPGKYVPDVLLNLIEQEKVTFSHCVPTILHLLLSSPKSKAMDFSGWKVVIGGAALPKALCKSALERDIDVFAGYGMSETGPILSIVQLTPEQLELDVDQQAEYRSKTGKKVALVEAYIVDEDMNKLPHDGETAGEIVVRAPWLTPNYYKDNKNSKALWRGGYLHTGDVAHIDDEGFIKITDRVKDMIKISGEWVSSLELEDILHQHQSVSEVAVIGMPHNKWGEVPLALVTLKEDAQVTEKELLGFAKDFINKGILAREALLLKVKIVDEIAKTSVGKVDKKELRKLHL
stoichiometry N (SEC): 6
